Data set [1] is described as follows: Pharmacokinetics in male Sprague Dawley rats following oral co-dosing. Type of data set: in vivo. As to the method: Separate solutions of rivaroxaban and Compound 101 were prepared using 20% ethanol, 60% PEG400, 20% dimethyl isosorbide to provide a concentration of 10 mg/mL. The concentration of each solution was confirmed by HPLC prior to further use. A combination dose of rivaroxaban and Compound 101 was prepared by mixing the two solutions in a 1.09:1 ratio to yield a final concentration of 5.45 mg/mL of rivaroxaban and 5 mg/mL for Compound 101.
Two male Sprague Dawley rats were dosed by oral gavage with the combination dose containing rivaroxaban (5.45 mg/kg) and compound 101 (5 mg/kg). Blood samples (approximately 0.25 mL) were collected retro-orbitally following oral administration at 0 minutes (min) (pre-dose), 5 min, 15 min, 30 min, 1 hr, 1.5 hr, 2 hr, 4 hr, 6 hr, 8 hr, 10 hr and 24 hr post-dose. Blood samples were stored on ice and centrifuged within 15 minutes of collection to harvest plasma. The plasma was decanted immediately and frozen at −20° C. until analysis.
Analyses of plasma samples were performed using a high performance liquid chromatography/mass spectrometry (HPLC/MS/MS) method. The LC system comprised an Agilent (Agilent Technologies Inc. USA) liquid chromatograph equipped with an isocratic pump (1100 series), an autosampler (1100 series) and a degasser (1100 series). Mass spectrometric analysis was performed using an API3000 (triple-quadrupole) instrument from AB Inc (Canada) with an ESI interface. The data acquisition and control system were created using Analyst 1.4 software from ABI Inc. Data for rivaroxaban was corrected by multiplying by a factor of 0.91 to compensate for the 9% increased amount administered as compared to Compound 101.

The conditions of data set [2]: major in vivo metabolites of rivaroxaban; Weinz et al. 2004; cited from earlier work.
The conditions of data set [3]: use of rivaroxaban; Kubitza et al. 2005; cited from earlier work.
Where [4] appears, read: male Sprague Dawley rats, oral gavage co-dose: rivaroxaban 5.45 mg/kg (data multiplied by 0.91) and Compound 101 5 mg/kg, plasma.

Molecules are shown by their SMILES. Like-named read-outs stand apart in the source and are kept apart here.

Consider `[2H]C1([2H])OC([2H])([2H])C([2H])([2H])N(c2ccc(N3C[C@H](CNC(=O)c4ccc(Cl)s4)OC3=O)cc2)C1=O` [Compound 101, (S)-5-chloro-N-((2-oxo-3-(4-(3-oxo-2,2,5,5,6,6-d6-morpholino)phenyl)oxazolidin-5-yl)methyl)thiophene-2-carboxamide], for which, in data set [1] (setting [4]), the “AUC∞” value was 3424.33 ng·h/mL and the Cmax is 962 ng/mL. Also, in data set [1] (rats, oral co-dosing), the “increase in AUC as compared to rivaroxaban” value is on record as “greater than 16%” and the “increase in Cmax as compared to rivaroxaban” value was “greater than 14%”.
As for `O=C(O)CNC(=O)c1ccc(Cl)s1` [Compound M4], in data set [2], the activity of metabolite entry is recorded as “Neither metabolite is active”.
`O=C(NC[C@H]1CN(c2ccc(N3CCOCC3=O)cc2)C(=O)O1)c1ccc(Cl)s1` [Rivaroxaban, 5-chloro-N-[2-oxo-3-[4-(3-oxomorpholin-4-yl)phenyl]oxazolidin-5(S)-ylmethyl]thiophene-2-carboxamide, reference compound]: in data set [3], the adverse events entry was “ageusia (loss of taste), ecchymosis (bruising) and headache”. Also, the AUC(0-inf) in data set [1] (rat, male Sprague Dawley rats, oral gavage co-dose: rivaroxaban 5.45 mg/kg (data multiplied by 0.91) and Compound 101 5 mg/kg, plasma) amounted to 2930 ng·h/mL. Further, the Cmax in data set [1] (rat, male Sprague Dawley rats, oral gavage co-dose: rivaroxaban 5.45 mg/kg (data multiplied by 0.91) and Compound 101 5 mg/kg, plasma, read-out: Cmax) came to 842 ng/mL.

Source of the values: patent US8227464B2, “Substituted oxazolidinone derivatives” (Concert Pharmaceuticals, Inc., priority 2007, dated 2012).
